Assays:
[1] = organism: Ovis aries; experiment: Inhibition of sheep brain tubulin polymerization at 100 uM by DAPI staining-based fluorimetric method relative to control
[2] = Inhibition of sheep brain tubulin polymerization by DAPI staining-based fluorimetric method; design: species or system Ovis aries
[3] = Cytotoxicity against human K562 cells assessed as growth inhibition after 48 hrs by SRB assay; type: functional; conditions: K562, 48 h
[4] = Cytotoxicity against human HCT116 cells assessed as growth inhibition after 48 hrs by SRB assay; type: functional; conditions: HCT-116, 48 h
[5] = Cytotoxicity against human MDA-MB-435 cells assessed as growth inhibition after 48 hrs by SRB assay; type: functional; conditions: MDA-MB-435, 48 h
[6] = Cytotoxicity against human NCI-H460 cells assessed as growth inhibition after 48 hrs by SRB assay; type: functional; conditions: NCI-H460, 48 h
[7] = Cytotoxicity against human SF295 cells assessed as growth inhibition after 48 hrs by SRB assay; type: functional; conditions: SF-295, 48 h
[8] = Cytotoxicity against human OVCAR3 cells assessed as growth inhibition after 48 hrs by SRB assay; type: functional; conditions: OVCAR-3, 48 h
[9] = Cytotoxicity against human A498 cells assessed as growth inhibition after 48 hrs by SRB assay; type: functional; conditions: A498, 48 h
[10] = Cytotoxicity against human DU145 cells assessed as growth inhibition after 48 hrs by SRB assay; type: functional; conditions: DU-145, 48 h

| Structure (SMILES) | inhibition [1] [%] | IC50 [2] [nM] | also measured |
| --- | --- | --- | --- |
| COc1ccc(CN2c3ccccc3Oc3ccccc32)c(C(F)(F)F)c1 | 44 | – | – |
| COc1ccc(CN2c3ccccc3Sc3cccnc32)cc1F | 72 | 10500 | – |
| COc1ccc(C(=O)N2c3ccccc3Sc3ccccc32)c(C(F)(F)F)c1 | 80 | 11900 | – |
| COc1cc([C@@H]2c3cc4c(cc3C[C@H]3COC(=O)[C@@H]32)OCO4)cc(OC)c1OC [DESOXYPODOPHYLLOTOXIN] | 100 | 2000 | – |
| COc1ccc(Cn2c3ccccc3c(=O)c3ccccc32)cc1F | 13 | – | – |
| COc1ccc(/C=C\c2cc(OC)c(OC)c(OC)c2)cc1O [COMBRETASTATIN A4] | – | – | GI50 [3]: 4 nM; GI50 [4]: 2 nM; GI50 [5]: 3 nM |
| COc1ccc(C(=O)c2cc(OC)c(OC)c(OC)c2)cc1O [PHENSTATIN] | 99 | 3400 | GI50 [6]: 18 nM; GI50 [7]: 163 nM; GI50 [8]: 7 nM; GI50 [9]: 1190 nM; GI50 [10]: 34 nM |

Reference: ChEMBL document CHEMBL3862012, “Methylene versus carbonyl bridge in the structure of new tubulin polymerization inhibitors with tricyclic A-rings” (Bioorg Med Chem, 2016)
